Assay results as given in patent US9808496B2, “Use of a myrtle extract as an anti-biofilm agent against P. acnes” (PIERRE FABRE DERMO-COSMETIQUE, priority 2012, dated 2017).

What was measured:
Type in all cases: cell-based, Propionibacterium acnes
[1] = tested on: P. acnes CIP 53117T (eryS); assay: Activity of the combination erythromycin/myrtle extract on P. acnes biofilm (24-well microplate); settings: erythromycin 1000 μg/ml alone, 24 h contact on 48 h biofilm, limit of detection 1.3 log
Method: (§1) Myrtle extract is prepared according to example 2.
(§2) • Four Propionibacterium acnes strains were selected: Two Erythromycin-Resistant Strains (ERY R) • Propionibacterium acnes CIP 110371 • clinical isolate R4 Two Erythromycin-Sensitive Strains (ERY S) • Propionibacterium acnes CIP 53117T • clinical isolate B872 Protocol
(§3) A titrated suspension of P. acnes (about 10^6 CFU/ml), in minimal broth allowing no bacterial growth, was deposited in the wells of a 24-well microplate.
(§4) The microplates are placed under anaerobic conditions at 37±2° C. for 48 h, the time established for biofilm to form.
(§5) After 48 h, the supernatant of each well is discarded and then the wells are rinsed. Erythromycin and myrtle extract at various concentrations are added for a contact time of 24 h on the adhered cells (72 hours of adhesion in total).
(§6) The erythromycin concentration selected is 1000 μg/ml.
(§7) After 72 h of adhesion: • planktonic cells are counted • adhered (sessile) cells are counted after rinsing the well and then scraping in tryptone salt
(§8) Controls were prepared in parallel (adhered+planktonic cells) • 72 h biofilm control (with the medium changed at 48 h) • myrtle control at various concentrations (added after 48 h/24 h of contact) • 1000 μg/ml erythromycin control (added at 48 h/24 h of contact) • myrtle extract control at the concentrations tested
(§9) For all the wells in contact with erythromycin, 1 ml of each dilution is filtered on a membrane (Microfil®, Millipore) and then the filter is rinsed three times with 50 ml of sterile distilled water. The membranes are deposited on Columbia agar+5% sheep blood. The plates are incubated at 37±2° C. under anaerobic conditions. After 72 h to 96 h of incubation, the colony forming units (CFUs) are counted.
(§10) For all the biofilm controls and the myrtle extract alone, 100 μl of each dilution is inoculated by streaking on Columbia agar+5% sheep blood. The plates are incubated at 37±2° C. under anaerobic conditions. After 72 h to 96 h of incubation, the CFUs are counted. Results
(§11) This test consisted in evaluating the activity of erythromycin (1000 μg/ml) combined with myrtle extract, at concentrations of 0.03%, 0.001% and 0.0001%.
(§12) The results are expressed in log of the population counted.

P. acnes R4 (eryR) = assay: as above; settings: erythromycin 1000 μg/ml alone, 24 h contact on 48 h biofilm
Method: as §1, §2, §3, §4, §5, §6, §7, §8, §9, §10, §11, §12

[2] = tested on: P. acnes CIP 110371 (eryR); assay: as above; settings: erythromycin 1000 μg/ml alone, 24 h contact on 48 h biofilm, limit of detection 1.3 log
Method: as §1, §2, §3, §4, §5, §6, §7, §8, §9, §10, §11, §12

P. acnes B872 (eryS) = assay: as above; settings: erythromycin 1000 μg/ml alone, 24 h contact on 48 h biofilm
Method: as §1, §2, §3, §4, §5, §6, §7, §8, §9, §10, §11, §12

[3] = tested on: P. acnes eryS strains and eryR strains; assay: Erythromycin/myrtle extract on P. acnes biofilm, general conclusion over the strains
Method: as §2, §3, §4, §5, §7

[4] = tested on: two erythromycin-resistant strains (ERY R); assay: Bactericidal activity of erythromycin on isolated bacteria; settings: 1000 μg/ml
Method: as §6

CC[C@H]1OC(=O)[C@H](C)[C@@H](O[C@H]2C[C@@](C)(OC)[C@@H](O)[C@H](C)O2)[C@H](C)[C@@H](O[C@@H]2O[C@H](C)C[C@H](N(C)C)[C@H]2O)[C@](C)(O)C[C@@H](C)C(=O)[C@H](C)[C@@H](O)[C@]1(C)O [Ery, erythromycin]
Adhered cells, Log (number of CFU/well) ([1]; untreated control 5.1): 4.3 Log (number of CFU/well) | Planktonic cells, Log (number of CFU/well) ([1]; untreated control 5.5): 1.3 Log (number of CFU/well) | Planktonic cells, Log (number of CFU/well) (P. acnes R4 (eryR); untreated control 3.7): 3.5 Log (number of CFU/well) | Adhered cells, Log (number of CFU/well) (P. acnes R4 (eryR); untreated control 4.5): 3.5 Log (number of CFU/well) | Planktonic cells, Log (number of CFU/well) ([2]; untreated control 5.0): 4.2 Log (number of CFU/well) | Adhered cells, Log (number of CFU/well) ([2]; untreated control 5.3): 4.1 Log (number of CFU/well) | Planktonic cells, Log (number of CFU/well) (P. acnes B872 (eryS); untreated control 4.0): 1.3 Log (number of CFU/well) | Adhered cells, Log (number of CFU/well) (P. acnes B872 (eryS); untreated control 4.4): 4.0 Log (number of CFU/well) | Bactericidal activity of erythromycin alone [3]: high | Bactericidal activity [4]: did not have bactericidal activity
